The test system of assay [1] is platelets (gel-filtered platelet rich plasma). Description: Platelet Aggregation Inhibition Activity (agonist thrombin or ADP, light transmission). The format is cell-based. The note with it: for IC50: read-out: Aggregation (IC50, concentration at which the increase in light transmission equals 50%), thrombin or ADP agonist, 37° C., three minutes.
Protocol: The percentage of platelet aggregation is calculated as an increase in light transmission of drug treated platelet concentrate versus control treated platelet concentrate. Blood is obtained from drug free, normal donors into tubes containing 0.13M sodium citrate (two sources are routinely used: platelet concentrate obtained from Biological Specialty Corp., Lansdale, Pa. or whole blood obtained from donors). Platelet rich plasma (PRP) is collected by centrifugation of the concentrate or whole blood at 130×g for 15 minutes at 25° C. The PRP (5 mL) is gel filtered through Sepharose 2B (bed volume 50 mL), and the platelet count is adjusted to 2×10^7 platelets per sample. The following constituents are added to a siliconized cuvette: 250 μL of the concentrated platelet filtrate, 100 μL of Tyrode's buffer (0.14M NaCl, 0.0027M KCl, 0.012M NaHCO3, 0.76 mM Na2 HPO4, 0.0055M glucose and 2 mg/mL BSA pH 7.4), 50 μL of 2 mM calcium and test drug (50 mL).
Aggregation is monitored in a dual channel Chrono-log Aggregometer for three minutes following the addition of agonist (thrombin 50 μL of 1 unit/mL, or ADP 50 μL of 100 μM). The final assay volume is 500 μL. The reaction takes place at 37° C. The peak aggregation response is calculated as the increase in light transmission units over a three minute period. The difference of the increase in light transmission between control and drug treated platelets is then expressed as a percent of the nondrug treated controls. […] A percentage increase in light transmission indicates platelet aggregation inhibition activity for the tested compound.
In assay [2] the test system is activated platelets (125I-fibrinogen binding). Description: Fibrinogen Binding (125I-fibrinogen binding to activated platelets). The conditions noted are these: read-out: Binding (IC50, concentration of compound which provides 50% fibrinogen binding); thrombin-stimulated platelets; 0.15 μM 125I-fibrinogen. As to the method: The compounds of the invention as identified above are evaluated for platelet aggregation inhibition activity as indicated by the percentage of nonaggregated platelets which are available for binding in accordance with the following procedure.
Briefly, 40 mL of PRP (obtained from Biological Specialty Corp., Lansdale, Pa.) are centrifuged at 120×g to remove contaminating red cells. Aspirin (50 μM) is added and the PRP is incubated at 37° C. for 20 minutes. […] Platelets are concentrated by a 300×g centrifugation (10 minutes) and the pellet is resuspended in 4 mL. of Tyrode's buffer. The platelet suspension (4 mL) is gel-filtered through a Sepharose-2B column (50 mL bed volume). […] The binding reaction is performed in polystyrene tubes (final volume […]). Reagents are added in the following order: 80 mL of Tyrode's buffer, 50 mL of CaCl2 (final concentration (f.c.) […]) and 50 mL of thrombin (f.c. 0.1 unit/mL). The platelet suspension is then added and the mixture is allowed to incubate at room temperature for 2 minutes. Hirudin (50 mL, f.c. 0.5 unit/mL) is immediately added to prevent the catalytic activity of thrombin. […] The mixture is incubated for 10 minutes at room temperature. To terminate the binding reaction the platelets are sedimented (10,000×g for 3 minutes) through silicone oil (3:1 hi-phenol 550/methyl silicone 200, W. F. Nye, Inc., New Bedford, Mass.), in an Eppendorf centrifuge.
The amount of platelet radioactivity measured in the presence of nonlabeled fibrinogen (4 mg/mL) is considered the nonspecific binding. All samples are repeated in triplicate.
Positive percentages of fibrinogen binding indicates higher activity for inhibiting platelet aggregation since only non-aggregated or free platelets are available for fibrinogen binding.

Where [3] appears, read: Homo sapiens, thrombin or ADP agonist, read-out: Aggregation (percentage increase in light transmission).

Structures can show the parent of a compound that is named as a salt.

As for `O=C(NCCCN1CCCCC1)c1cnn(-c2nc(-c3ccccc3)cs2)c1C(F)(F)F` [Example 94], the IC50 in assay [1] worked out at 40 µM. As for `CCCNCCCNC(=O)c1ccc(-c2csc(-c3ccc(C(F)(F)F)cc3)n2)cc1` [Example 221], the IC50 in assay [2] amounted to 5.8 µM. For the same molecule, the inhibition at 20 µM in assay [1] (setting [3]) is 85%. For `O=C(NCCCNC1CCCCC1)c1ccc(-c2csc(-c3ccc(Cl)cc3)n2)cc1` [Example 213], the IC50 in assay [2] was found to be 9.2 µM; in assay [1], 10 µM.

In the case of `CCCCN(CCCC)CCCNC(=O)c1cnn(-c2nc(-c3ccc(C)cc3)cs2)c1C(F)(F)F` [Example 45], the values for the IC50 in assay [2] and in assay [1] were 8.5 µM and 45 µM, respectively. In the same order, the values of `CN(C)CCCNC(=O)c1ccc(-c2csc(-c3ccc(C(C)(C)C)cc3)n2)cc1` [Example 156] are 12 µM and 14.2 µM. As for `O=C(NCCCNC1CCCCC1)c1cnn(-c2nc(-c3ccc(C(F)(F)F)cc3)cs2)c1C(F)(F)F` [Example 105], the IC50 in assay [2] is 44 µM; in assay [1] it was 8 µM. In the same order, the values of `NCCCNC(=O)c1cnn(-c2nc(-c3cccc(C(F)(F)F)c3)cs2)c1C(F)(F)F` [Example 121, 2-[4-(3-Aminopropylcarbamoyl)-5-(trifluoromethyl)pyrazol-1-yl]-4-(3-trifluoromethylphenyl)thiazole Monohydrochloride] are 15 µM and 6 µM. `CC(C)NCCCNC(=O)c1cnn(-c2nc(-c3cccc(C(F)(F)F)c3)cs2)c1C(F)(F)F` [Example 112]: the IC50 in assay [1] was found to be 5 µM. Take `O=C(NCCCNC1CCCCC1)c1cnn(-c2nc(-c3cccc(C(F)(F)F)c3)cs2)c1C(F)(F)F` [Example 102]: the IC50 in assay [2] is 25 µM; in assay [1], 6 µM. In the same order, the values of `O=C(NCCCN1CCCCC1)c1cnn(-c2nc(-c3cccc(C(F)(F)F)c3)cs2)c1C(F)(F)F` [Example 89, 2-[4-[3-(N-Piperidino)propylcarbamoyl]-5-(trifluoromethyl)pyrazol-1-yl]-4-(3-trifluoromethylphenyl)thiazole] are 10 µM and 13 µM. As to `CC(C)N(CCCCNC(=O)c1ccc(-c2csc(-c3ccc(C(F)(F)F)cc3)n2)cc1)C(C)C` [Example 189], the inhibition at 20 µM in assay [1] (setting [3]) was found to be 86%. As for `O=C(NCCCN1CCCCC1)c1cnn(-c2nc(-c3cccc(Cl)c3)cs2)c1C(F)(F)F` [Example 106], the IC50 in assay [1] stood at 30 µM.

For the molecule `CN(C)CCCNC(=O)c1cnn(-c2nc(-c3ccc([N+](=O)[O-])cc3)cs2)c1C(F)(F)F` [Example 36], the IC50 in assay [2] amounted to 50 µM. Take `NCCCOCc1cnn(-c2nc(-c3cccc(C(F)(F)F)c3)cs2)c1C(F)(F)F` [Example 138, 2-[4-[3-Aminopropoxymethyl]-5-(trifluoromethyl)pyrazol-1-yl]-4-(3-trifluoromethylphenyl)thiazole Hydrochloride]: the IC50 in assay [1] was found to be 2.1 µM.

For `O=C(NCCCN1CCCC1)c1cnn(-c2nc(-c3ccccc3C(F)(F)F)cs2)c1C(F)(F)F` [Example 101], the IC50 in assay [1] is 15 µM. In the case of `CCN(CC)CCNC(=O)c1ccc(-c2csc(-c3ccc(C(C)(C)C)cc3)n2)cc1` [Example 181], the inhibition at 20 µM in assay [1] (setting [3]) was 85%. In the case of `Cn1c(C(=O)NCCCNC2CCCCC2)ccc1-c1nc(-c2cccc(C(F)(F)F)c2)cs1` [Example 236, 2-[2-(4-Cyclohexylaminopropylcarbamoyl)-1-methyl-1H-pyrrol-5-yl]-4(3-trifluoromethylphenyl)thiazole], the IC50 in assay [2] turned out to be 13.5 µM. In the case of `Cn1c(C(=O)NCCCN)ccc1-c1nc(-c2ccccc2)c(C(=O)O)s1` [Example 237, 2-[2-(4-Aminopropylcarbamoyl)-1-methyl-1H-pyrrol-5-yl]-4-phenyl-1,3-thiazole-5-carboxylic acid monohydrochloride monohydrate], the inhibition at 50 µM in assay [1] (Homo sapiens, at 50 μM, thrombin or ADP agonist, read-out: Aggregation (percentage increase in light transmission)) is 68%.

`O=C(NCCCN1CCCCCC1)c1cnn(-c2nc(-c3cccc(C(F)(F)F)c3)cs2)c1C(F)(F)F` [Example 109]: the IC50 in assay [1] was determined as 6 µM.

For `CCN(CC)CCCNC(=O)c1cnn(-c2nc(-c3cc(OC)c(OC)c(OC)c3)cs2)c1C(F)(F)F` [Example 47], in assay [1], the IC50 is 5.6 µM. Still for that read-out and setting: for `CCN(CC)CCNC(=O)c1cnn(-c2nc(-c3ccc([N+](=O)[O-])cc3)cs2)c1C(F)(F)F` [Example 35] the value was 75 µM. `O=C(NCCN1CCCCC1)c1ccc(-c2csc(-c3ccccc3)n2)cc1` [Example 158]: the IC50 in assay [2] was 5.2 µM; in assay [1], 8.7 µM.

In the case of `Cc1ccc(-c2csc(-n3ncc(C(=O)NCCCN4CCCCC4)c3C(F)(F)F)n2)cc1` [Example 92], the IC50 in assay [1] was determined as 10 µM. On to `CN(C)CCCNC(=O)c1cnn(-c2nc(-c3cccc(C(F)(F)F)c3)cs2)c1C(F)(F)F` [Example 39], for which the IC50 stood at 16 µM in assay [2] and 30 µM in assay [1]. Turning to `O=C(NCCCNC1CCCCC1)c1cnn(-c2nc(-c3cccc(Cl)c3)cs2)c1C(F)(F)F` [Example 107], the IC50 in assay [1] turned out to be 5 µM.

Take `FC(F)(F)c1cccc(-c2csc(-n3ncc(COCCCN4CCCCC4)c3C(F)(F)F)n2)c1` [Example 136, 2-[4-[3-(N-Piperidino)propoxymethyl]-5-(trifluoromethyl)pyrazol-1-yl]-4-(3-trifluoromethylphenyl)thiazole Oxalate]: the IC50 amounted to 17 µM in assay [2] and 21 µM in assay [1]. In the same order, the values of `O=C(NCCCN1CCCCC1)c1ccc(-c2csc(-c3ccc(Cl)cc3)n2)cc1` [Example 211] are 3.4 µM and 5 µM. In the same order, the values of `CCN(CC)CCCNC(=O)c1cnn(-c2nc(-c3ccccc3)cs2)c1C(F)(F)F` [Example 50] are 50 µM and 30 µM. As to `CCN(CC)CCNC(=O)c1cnn(-c2nc(-c3cccc(C(F)(F)F)c3)cs2)c1C(F)(F)F` [Example 34], the IC50 in assay [2] came to 6 µM.

On to `Cc1cccc(-c2csc(-n3ncc(C(=O)NCCCN4CCCC4)c3C(F)(F)F)n2)c1` [Example 99], for which the IC50 in assay [1] amounted to 30 µM. `CCN(CC)CCCNC(=O)c1cnn(-c2nc(-c3ccc(OC)cc3)cs2)c1C(F)(F)F` [Example 41]: the IC50 in assay [1] turned out to be 30 µM. On the same count and under the same terms, for `CCN(CC)CCCCNC(=O)c1cnn(-c2nc(-c3cccc(C(F)(F)F)c3)cs2)c1C(F)(F)F` [Example 52] the value was 6 µM; for `CCN(CC)CCCNC(=O)c1ccc(-c2csc(COc3ccc(Cl)cc3)n2)cc1` [Example 206], 5.1 µM. Same read-out and setting: then `O=C(NCCCN1CCCCC1)c1cnn(-c2nc(-c3ccccc3C(F)(F)F)cs2)c1C(F)(F)F` [Example 100], with 30 µM. With `COc1ccc(-c2nc(-c3ccc(C(=O)NCCCN(C)C)cc3)cs2)cc1` [Example 187], the inhibition at 20 µM in assay [1] (setting [3]) came to 89%. As to `CN(C)C=NCCCNC(=O)c1cnn(-c2nc(-c3cccc(Cl)c3)cs2)c1C(F)(F)F` [Example 132, 2-[4-(3-(N,N-Dimethylformamidinyl)propylcarbamoyl]5-(trifluoromethyl)pyrazol-1-yl]-4-(3-chlorophenyl)thiazole], in assay [1], the IC50 is 7 µM. On the same count and under the same terms, then `O=C(NCCN1CCCC1)c1cnn(-c2nc(-c3cccc(C(F)(F)F)c3)cs2)c1C(F)(F)F` [Example 51], with 30 µM. Still for that read-out and setting: then `Cc1ccc(-c2csc(-n3ncc(C(=O)NCCCN4CCCC4)c3C(F)(F)F)n2)cc1` [Example 93], with 30 µM; and `NCCCCCNC(=O)c1cnn(-c2nc(-c3cccc(C(F)(F)F)c3)cs2)c1C(F)(F)F` [Example 61], with 11.5 µM; and `O=C(NCCCNC1CCCCC1)c1cnn(-c2nc(-c3cccc(C(F)(F)F)c3)cs2)c1-c1ccccc1` [Example 108], with 20 µM. On the same count and under the same terms, for `O=C(NCCCN1CCCCC1)c1cnn(-c2nc(-c3ccc(Cl)c(Cl)c3)cs2)c1C(F)(F)F` [Example 97] the value was 10 µM; for `CCN(CC)CCCNC(=O)c1cnn(-c2nc(-c3ccc(C(F)(F)F)cc3)cs2)c1C(F)(F)F` [Example 56], 4 µM; for `CC1CCCCN1CCCNC(=O)c1cnn(-c2nc(-c3cccc(C(F)(F)F)c3)cs2)c1C(F)(F)F` (stereo not shown) [Example 54], 10 µM.

For `CCN(CC)CCNC(=O)c1ccc(-c2csc(-c3ccc(Cl)cc3)n2)cc1` [Example 177], the IC50 in assay [1] was determined as 12.8 µM. Still for that read-out and setting: then `Cc1cccc(-c2csc(-n3ncc(C(=O)NCCN4CCCCC4)c3C(F)(F)F)n2)c1` [Example 55], with 30 µM; and `Cc1ccc(-c2csc(-n3ncc(C(=O)NCCCNC4CCCCC4)c3C(F)(F)F)n2)cc1` [Example 96], with 3.5 µM; and `O=C(NCCN1CCCCC1)c1cnn(-c2nc(-c3ccc(C(F)(F)F)cc3)cs2)c1C(F)(F)F` [Example 57], with 7 µM. For `CCCCNCCCNC(=O)c1ccc(-c2csc(-c3ccc(C(F)(F)F)cc3)n2)cc1` [Example 218], the inhibition at 20 µM in assay [1] (setting [3]) is 90%.

Source of the values: patent US5342851A, “Substituted thiazole derivatives useful as platelet aggregation inhibitors” (McNeil-PPC, Inc., priority 1992, dated 1994).
